We go through 17 molecules from patent publication US20070276011A1, “Plasminogen Activator Inhibitor-1 Inhibitor” (priority 2003, published 2007).

recombinant human PAI-1, sequence (P05121 24-402): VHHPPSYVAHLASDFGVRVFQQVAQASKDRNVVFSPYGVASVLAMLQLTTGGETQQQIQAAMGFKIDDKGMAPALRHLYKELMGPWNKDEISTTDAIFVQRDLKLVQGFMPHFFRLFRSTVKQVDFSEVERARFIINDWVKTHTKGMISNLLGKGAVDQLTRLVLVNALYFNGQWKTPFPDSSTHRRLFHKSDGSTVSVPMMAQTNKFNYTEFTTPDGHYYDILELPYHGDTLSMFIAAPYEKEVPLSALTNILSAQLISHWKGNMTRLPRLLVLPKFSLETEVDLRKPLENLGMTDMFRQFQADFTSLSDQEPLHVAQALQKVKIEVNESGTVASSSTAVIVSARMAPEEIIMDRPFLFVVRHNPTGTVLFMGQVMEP

One assay has as its target recombinant human PAI-1 (Homo sapiens, UniProt P05121). In words: PAI-1 inhibitory activity, Test Method A (tPA fluorogenic substrate, Tris buffer pH8.0, 37 C). It is filed as biochemical. To be noted: 25 μM test compound; Test Method A. The method, then: To this solution, 50 μL solution of 400 μM fluogenic substrate for tPA (Pyr-Gly-Arg-MCA, Peptide Institute, Inc.) adjusted with the same buffer was added, and reacted for 30 minutes at 37° C. The reaction was stopped by adding 50 μL of 2% acetic acid. Fluorescence was measured at the excitation wavelength=360 nm, emission wavelength=460 or 465 nm using a microplate reader (SPECTRAFLUOR or GENios) by TECAN. The fluorescence intensities in the presence of the PAI-1 as the control (DMSO) or in the absence of the PAI-1 (tPA alone) were taken as 100% and 0% of PAI-1 activities, respectively, and inhibitory ratios of PAI-1 activities in the presence of the test compound were obtained.
<Composition of the Tris Buffer (pH8.0)>
Turning to `CC(C)C1=NN(c2ccc(Cl)c(Cl)c2)C(=O)C1=Cc1cc(Oc2ccc(Br)cc2)ccc1[N+](=O)[O-]` [Compound No. 562, 4-[2-Nitro-5-(4-bromophenoxy)benzylidene]-1-(3,4-dichlorophenyl)-3-isopropyl-2-pyrazolin-5-one], the “Inhibitory Ratio at 25 μM (%)” value is reported as more than 99%.

Turning to `COc1ccc(Oc2ccc([N+](=O)[O-])c(C=C3C(=O)N(c4ccc(Cl)c(Cl)c4)N=C3C(C)C)c2)cc1OC` [Compound No. 563, 4-[2-Nitro-5-(3,4-dimethoxyphenoxy)benzylidene]-1-(3,4-dichlorophenyl)-3-isopropyl-2-pyrazolin-5-one], the “Inhibitory Ratio at 25 μM (%)” value turned out to be 62%.

In the case of `O=C(O)c1ccc(N2N=C(c3cc(Br)ccc3O)C(=Cc3ccc(Cl)c(Cl)c3)C2=O)cc1` [Compound No. 564, 4-(3,4-Dichlorobenzylidene)-1-(4-carboxyphenyl)-3-(2-hydroxy-5-bromophenyl)-2-pyrazolin-5-one], the “Inhibitory Ratio at 25 μM (%)” value amounted to 96%.

For `CCOC1=NN(c2ccc([N+](=O)[O-])cc2)C(=O)C1=Cc1cc(C=Cc2ccc(Oc3ccccc3)cc2)ccc1O` [Compound No. 565, 4 [2-Hydroxy-5-(4-phenoxystyryl)benzylidene]-1-(4-nitrophenyl)-3-ethoxy-2-pyrazolin-5-one], the “Inhibitory Ratio at 25 μM (%)” value is recorded as more than 99%.

As to `CC(C)C1=NN(c2ccc(Cl)c(Cl)c2)C(=O)C1=Cc1cc(C=Cc2ccc(Oc3ccccc3)cc2)ccc1O` [Compound No. 566], the “Inhibitory Ratio at 25 μM (%)” value was found to be 76%.

Still in this assay, the particulars now being: test compound 25 μM; Test Method A.
In the case of `O=C1SC(=Cc2cc(Br)cc(Br)c2O)C(=O)N1c1ccccc1` [compound 1], the “Inhibitory Ratio at 25 μM (%)” value is given as more than 99%.

On to `O=C1SC(=Cc2cc(Br)cc(Br)c2O)C(=O)N1Cc1cc(C(F)(F)F)cc(C(F)(F)F)c1` [compound 2, 5-(3,5-Dibromo-2-hydroxybenzylidene)-3-[3,5-bis(trifluoromethyl)benzyl]-thiazolidine-2,4-dione], for which the “Inhibitory Ratio at 25 μM (%)” value is on record as 52%.

For `COc1cc(CN2C(=O)SC(=Cc3cccc(O)c3O)C2=O)cc(OC)c1` [compound 3, 5-(2,3-Dihydroxybenzylidene)-3-(3,5-dimethoxybenzyl)thiazolidine-2,4-dione], the “Inhibitory Ratio at 25 μM (%)” value was 71%.

Consider `O=C1SC(=Cc2ccc(O)c(O)c2)C(=O)N1Cc1cc(C(F)(F)F)cc(C(F)(F)F)c1` [compound 4], for which the “Inhibitory Ratio at 25 μM (%)” value is more than 99%.

With `Cc1cccc(C=C2SC(=O)N(Cc3cc(C(F)(F)F)cc(C(F)(F)F)c3)C2=O)c1O` [compound 6], the “Inhibitory Ratio at 25 μM (%)” value is 46%.

Take `O=C1SC(=Cc2cccc(O)c2O)C(=O)N1Cc1ccc(Cl)c(Cl)c1` [compound 8, 5-(2,3-Dihydroxybenzylidene)-3-(3,4-dichlorobenzyl)thiazolidine-2,4-dione]: the “Inhibitory Ratio at 25 μM (%)” value was more than 99%.

Consider `O=C1SC(=Cc2ccc(O)c(O)c2)C(=O)N1Cc1ccc(Cl)c(Cl)c1` [compound 9], for which the “Inhibitory Ratio at 25 μM (%)” value was more than 99%.

Turning to `O=C1SC(=Cc2cccc(O)c2O)C(=O)N1Cc1cc(Cl)cc(Cl)c1` [compound 11, 5-(2,3-Dihydroxybenzylidene)-3-(3,5-dichlorobenzyl)thiazolidine-2,4-dione], the “Inhibitory Ratio at 25 μM (%)” value is given as more than 99%.

On to `O=C1SC(=Cc2ccc(O)c(O)c2)C(=O)N1Cc1cc(Cl)cc(Cl)c1` [compound 12], for which the “Inhibitory Ratio at 25 μM (%)” value is listed as more than 99%.

Turning to `CC(C)(C)c1cc(CN2C(=O)SC(=Cc3cccc(O)c3O)C2=O)cc(C(C)(C)C)c1O` [compound 13, 5-(2,3-Dihydroxybenzylidene)-3-[3,5-di(tert-butyl)-4-hydroxybenzyl]-thiazolidine-2,4-dione], the “Inhibitory Ratio at 25 μM (%)” value is given as more than 99%.

As for `CC(C)(C)c1cc(CN2C(=O)SC(=Cc3ccc(O)c(O)c3)C2=O)cc(C(C)(C)C)c1O` [compound 14], the “Inhibitory Ratio at 25 μM (%)” value is given as more than 99%.

Take `COc1cc(OC)c(OC)cc1CN1C(=O)SC(=Cc2cccc(O)c2O)C1=O` [compound 15, 5-(2,3-Dihydroxybenzylidene)-3-(2,4,5-trimethoxybenzyl)thiazolidine-2,4-dione]: the “Inhibitory Ratio at 25 μM (%)” value was determined as 93%.
